Source: patent US20110142884A1, “Materials and Methods for Making Improved Micelle Compositions” (The Board of Trustees of the University of Illinois, priority 2002, published 2011)

Test system: second order arterioles of the hamster cheek pouch microcirculation
Assay: Hamster cheek pouch microcirculation, arteriolar diameter during suffusion
Assay type: in vivo
Details: native VIP alone, suffusion
Description: According to this example, the vasorelaxant effects of VIP in a SSM were determined according to the following method. Specifically, adult male golden Syrian hamsters were purchased from Sasco (Omaha, Nebr.). Adult male hamsters with spontaneous hypertension and their normotensive controls were purchased from the Canadian Hybrid Farms (Halls Harbour, NS, Canada). Hypertensive animals have been identified after cross-breeding of hamsters with hereditary cardiomyopathy and normal golden Syrian hamsters. These albino animals have previously been used in our laboratory (Rubinstein et al., Biochem. Biophys. Res. Commun. 183:1117-1123 (1992); Artwohl et al., FASEB J. 10:A629 (1996)). Animals were anesthetized with pentobarbital sodium (6 mg/100 g body weight, i.p.). A tracheotomy was performed to facilitate spontaneous breathing. A femoral vein was cannulated to inject supplemental anesthesia during the experiment (2-4 mg/100 g body weight/h). Body temperature was maintained constant (37-38° C.) and monitored via heating pad and a feed back controller throughout the experiment.
The bioactivity of the VIP in SSM by diffusing it in situ was determined by visualization of the microcirculation of the hamster cheek pouch. The microcirculation of the cheek pouch was visualized locally by a method previously developed in our laboratory (Suzuki et al., Life Sci. 57:1451-1457 (1995); Suzuki et al., Am. J. Physiol. 271:R393-R397 (1996); and Suzuki et al., Am. J. Physiol. 271:H282-H287 (1996)). Briefly, the left cheek pouch was spread over a small plastic baseplate, and an incision was made in the outer skin to expose the cheek pouch membrane. The connective avascular tissue layer was removed, and a plastic chamber was placed over the baseplate and secured in place by suturing the skin around the upper chamber. This forms a triple-layered complex: the baseplate, the exposed cheek pouch membrane, and the upper chamber. After these initial procedures, the hamster is transferred to a heated microscope stage. The chamber was connected to a reservoir containing warmed bicarbonate buffer (37-38° C.) that allowed continuous suffusion of the cheek pouch. The buffer was bubbled continuously with 95% N2-5% CO2 (pH 7.4). […]
The cheek pouch microcirculation was epi-illuminated with a 100-W mercury light source and viewed through a microscope (Nikon, Tokyo, Japan) at a magnification of ×40. […] The inner-wall diameter of second order arterioles ([…]), which modulated vascular resistance in the cheek pouch, (Raud, Acta Physiol. Scand. (Suppl.) 578:1-58 (1989); Suzuki et al., Life Sci. 57:1451-1457 (1995); Suzuki et al., Am. J. Physiol. 271:R393-R397 (1996)) was measured from the video display of the microscope image using a videomicrometer (VIA 100; Boeckeler Instruments, Tucson, Ariz.). […]

Substance: vasoactive intestinal peptide [VIP]
- effects on the arteriolar diameter: no significant effects
